This note sets out measurements from patent publication US8906897B2, “Antimicrobial agents based on hemin derivatives” (Obschestvo S Ogranichennoi Otvetstvennostiyu …, priority 2009, dated 2014).

Data set [1] concerns Enterococcus faecalis No. 559. In words: Specific activity against resistant bacterial strains. It is filed as cell-based. To be noted: Ent. faecalis 559; 24 h, 36° C.
The test system of data set [2] is Staphylococcus epidermidis No. 533. The description is as above. It is filed as cell-based. To be noted: St. epiderm 533; 24 h, 36° C.
Data set [3] deals with Staphylococcus aureus No. 25923 ATCC. The description is as above. It counts as cell-based. To be noted: St. aureus 25923; 24 h, 36° C.
Data set [4] deals with Staphylococcus aureus No. 100 KC. Described as above. It counts as cell-based. To be noted: St. aureus 100 KC; 24 h, 36° C.
Data set [5] can be described thus: Solubility of tested agents (water / DMSO). Particulars: water or DMSO.
The test system of data set [6] is Candida albicans No. 927. Briefly: Antifungal activity, culture growth with pH indicator. It is filed as cell-based. Also on record: key to Test culture growth at various dilutions of the agent: (−) No growth; the indicator is blue; (±) Weak growth; the indicator is yellow, but the precipitate of grown cells looks as a diffuse spot; (+) Strong growth; the indicator is yellow, and the cell precipitate looks as a compact spot. The method in brief:
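Museum strains grown one day on glucose-peptone-yeast medium at 32° C; compounds two-fold serially diluted (DMSO ≤5% for insoluble ones) in synthetic medium with Bromocresol Blue, ~10^3 CFU/mL. Growth read as blue-to-yellow shift (pH 5.5→4.5) after 1 h at 32° C with stirring, then 27° C: C. neoformans 2 and 5 days, C. albicans 1 and 4 days.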

Data set [7] relates to Cryptococcus neoformans No. 3465. The description is as above. It is filed as cell-based. Set-up: key: (−) No growth; the indicator is blue; (±) Weak growth; the indicator is yellow, but the precipitate of grown cells looks as a diffuse spot; (+) Strong growth; the indicator is yellow, and the cell precipitate looks as a compact spot. On the procedure: The subjects of action were Cryptococcus neoformans No. 3465 museum strain cells and Candida albicans No. 927 museum strain cells grown for one day on a glucose-peptone-yeast medium at 32° C. The reference compounds were the following antimycotics: pimafucin, amphotericin, and fluconazole.
Experiments were carried out on round-bottomed 96-well plates (Lenmedpolimer) in two replicas. To the first column (0), added was 10 μL of the stock solution of a water-soluble agent with concentrations of 10^−2 to 10^−3 mol/L; to the second column, added was also the same 10 μL plus 10 μL of the solvent corresponding to the given compound, suspended, 10 μL was transferred to the next well, and so on to the 8th well of the row. Stock solutions of water-insoluble compounds of general formula (I) (compounds V, VIII, XII, XIII, XIV, and hemin) were prepared in DMSO and were diluted with DMSO and the medium. DMSO concentrations in the reaction mixture in a well were ≦5%.
Then, to every well added was 190 μL of a Cr. neoformans cell culture suspension in a synthetic nutritional medium (so that the final cell concentration was approximately 10^3 CFU/mL), this medium containing Bromocresol Blue as a pH-indicator (pH: 5.5; indicator color: blue). As pH reduced to 4.5, the indicator in the culture changed its color to yellow, thereby indicating fungal cell growth. The synthetic medium comprised the following components: salts, amino acids, microelements, vitamins, an antibiotic, and glucose (30 components altogether) [Yarrow, D., “Methods for the Isolation, Maintenance and Identification of Yeasts,” in: The Yeasts. A Taxonomic Study, Ed. by Kurtsman, C. P, and Fell, M., Elsevier, 1998, pp. 77-100]. After being inoculated with a Cr. neoformans cell suspension, the plate was incubated at 32° C. for 1 h with stirring, then transferred to a stationary thermostat and incubated for two and five days at 27° C. After being inoculated with a C. albicans cell suspension, the plates were incubated for 1 h at 32° C. with stirring, then transferred to a stationary thermostat and incubated for one and four days at 27° C.

For `C=CC1=C(C)c2cc3[n-]c(cc4nc(cc5[n-]c(cc1n2)c(C)c5CCC(=O)N[C@@H](CCCNC(=N)N)C(=O)OC)C(CCC(=O)N[C@@H](CCCNC(=N)N)C(=O)OC)=C4C)c(C)c3C=C.[Cl-].[Fe+3]` [VII], the “MICs for hemin derivatives against Gr+ strains” value was 25 µM in data set [1], 25 µM in data set [2], 2.5. ×10^−5 M in data set [3] and 50 µM in data set [4]. The “solubility (in words)” value in data set [5] is recorded as “water-soluble”. The “Test culture growth at various dilutions of the agent” value is listed as “±” in data set [6] (dilution 0: 1 × 10^−4 M); “+” in data set [6] (dilution : 2 of 1 × 10^−4 M); “+” in data set [6] (dilution : 4 of 1 × 10^−4 M); “+” in data set [6] (dilution : 8 of 1 × 10^−4 M); “+” in data set [6] (dilution : 16 of 1 × 10^−4 M); “+” in data set [6] (dilution : 32 of 1 × 10^−4 M). For the same molecule, the “Test culture growth at various dilutions of the agent” value in data set [6] (dilution : 64 of 1 × 10^−4 M) is “+”. In addition, the “Test culture growth at various dilutions of the agent on day 2” value in data set [7] (dilution 0: 5.00 × 10^−5 M) is given as “−”; in data set [7] (dilution : 2 of 5.00 × 10^−5 M), “±”; in data set [7] (dilution : 4 of 5.00 × 10^−5 M), “+”; in data set [7] (dilution : 8 of 5.00 × 10^−5 M), “+”; in data set [7] (dilution : 16 of 5.00 × 10^−5 M), “+”; in data set [7] (dilution : 32 of 5.00 × 10^−5 M), “+”. Moreover, the “Test culture growth at various dilutions of the agent on day 2” value in data set [7] (dilution : 64 of 5.00 × 10^−5 M) and in data set [7] (dilution : 128 of 5.00 × 10^−5 M) was “+” each time.
